In ChEMBL document CHEMBL1135798, “Structure-activity relationships of the antimalarial agent artemisinin. 6. The development of predictive in vitro potency models using CoMFA and HQSAR methodologies” (2002):

What follows are compounds tested on Plasmodium falciparum (assay: Antimalarial activity against chloroquine-resistant, mefloquine-sensitive Plasmodium falciparum W2).
Assay type: functional

SMILES | Log RA
CCCC[C@H]1C(=O)O[C@@H]2O[C@@]3(CCCc4ccc(Cl)cc4)CC[C@H]4[C@H](C)CC[C@@H]1[C@@]24OO3 | -0.28
C[C@@H]1CCC2[C@@H](C)C(=O)OC3OC(C)(C)OO[C@@]32C1 (stereo partly drawn) | -0.15
CCC[C@H](Cc1ccccc1)OC1O[C@@H]2O[C@@]3(C)CC[C@H]4[C@H](C)CC[C@@H]([C@H]1C)[C@@]24OO3 (stereo partly drawn) | -0.09
CC[C@H]1C(=O)O[C@@H]2O[C@@]3(C)CC[C@H]4[C@H](C)CC[C@@H]1[C@@]24OO3 | 1.4
CCCC[C@H]1C(=O)O[C@@H]2O[C@@]3(C)CC[C@H]4[C@H](C)CC[C@@H]1[C@@]24OO3 | 0.17
C[C@@H]1CC[C@H]2[C@@H](CCCCc3ccccc3)C(=O)O[C@@H]3O[C@@]4(C)CC[C@@H]1[C@]32OO4 | 0.63
CCCCC[C@H]1CO[C@@H]2O[C@@]3(C)CC[C@H]4[C@H](C)CC[C@@H]1[C@@]24OO3 | 0.16
CCOC(=O)CC[C@@]12CC[C@H]3[C@H](C)CC[C@H]4CCO[C@H](O1)[C@]43OO2 | 0.7
CCC[C@@]12CC[C@H]3[C@H](C)CC[C@H]4CCO[C@H](O1)[C@]43OO2 | 0.84
CC(C)C[C@@]12CC[C@H]3[C@H](C)CC[C@H]4CCO[C@H](O1)[C@]43OO2 | 0.4
CC1C(=O)O[C@@H]2C[C@@]3(C)CC[C@H]4[C@H](C)CC[C@@H]1[C@@]24OO3 (stereo partly drawn) | -0.96
C[C@@H]1CC[C@H]2[C@@H](C)CO[C@@H]3O[C@@]4(C)CC[C@@H]1[C@]32OO4 | 0.75
CC1=CO[C@@H]2O[C@@]3(C)CC[C@H]4[C@H](C)CC[C@@H]1[C@@]24OO3 | 0.78
CCC[C@@]12CC[C@H]3[C@H](C)CC[C@H]4CC(=O)O[C@H](O1)[C@]43OO2 | 0.83
CCCC[C@H]1C(=O)O[C@@H]2O[C@@]3(CCCC)CC[C@H]4[C@H](C)CC[C@@H]1[C@@]24OO3 | -0.48
c1ccc([C@]23CC[C@@](c4ccccc4)(COC2)OO3)cc1 | -2.26
CCOC(=O)COC1O[C@@H]2O[C@@]3(C)CC[C@H]4[C@H](C)CC[C@@H]([C@H]1C)[C@@]24OO3 (stereo partly drawn) | 0.52
CCO[C@H]1O[C@@H]2O[C@@]3(C)CC[C@H]4C(C)[C@@H](O)C[C@@H]([C@H]1C)[C@@]24OO3 (stereo partly drawn) | 0.34
CC(C)C[C@@]12CC[C@H]3[C@H](C)CC[C@H]4CCO[C@H](O1)[C@]43O2 | -4
C[C@@H]1CC[C@H]2[C@@H](C)C(=O)N[C@@H]3O[C@@]4(C)CC[C@@H]1[C@]32OO4 | 0
C[C@@H]1CC[C@H]2CC(=O)N(C)[C@@H]3O[C@@]4(C)CC[C@@H]1[C@@]23OO4 | 0.7
COC(=O)CCCOC1O[C@@H]2O[C@@]3(C)CC[C@H]4[C@H](C)CC[C@@H]([C@H]1C)[C@@]24OO3 (stereo partly drawn) | -0.03
C[C@@H]1CC[C@H]2C3(CC3)C(=O)O[C@@H]3O[C@@]4(C)CC[C@@H]1[C@]32OO4 | -0.94
CCCCC[C@H]1C(=O)O[C@@H]2O[C@@]3(C)CC[C@H]4[C@H](C)CC[C@@H]1[C@@]24OO3 | 1.02

SMILES | Log RA
CC(C)[C@H]1C(=O)O[C@@H]2O[C@@]3(C)CC[C@H]4[C@H](C)CC[C@]1(C)[C@@]24OO3 | -0.04
C[C@@H]1CC[C@@H]2[C@]34OO[C@](C)(CC[C@@H]13)O[C@H]4OC(Nc1nccs1)[C@@]2(C)Br (stereo partly drawn) | 0.66
CC1CCO[C@@H]2O[C@@]3(C)CC[C@H]4[C@H](C)CC[C@@H]1[C@@]24OO3 (stereo partly drawn) | -1.2
C/C=C/C[C@@H]1C(=O)O[C@@H]2O[C@@]3(C)CC[C@H]4[C@H](C)CC[C@@H]1[C@@]24OO3 | -0.6
C[C@@H]1CC[C@@H]2[C@]34OO[C@](C)(CC[C@@H]13)O[C@H]4OC(O)[C@]21CO1 (stereo partly drawn) | -0.57
CCOC(=O)CC[C@@]12CC[C@H]3[C@H](C)CC[C@H]4CCO[C@H](O1)[C@]43O2 | -4
CC(C)CC[C@H]1C(=O)O[C@@H]2O[C@@]3(C)CC[C@H]4[C@H](C)CC[C@@H]1[C@@]24OO3 | 0.07
COC(=O)c1ccc(COC2O[C@@H]3O[C@@]4(C)CC[C@H]5[C@H](C)CC[C@@H]([C@H]2C)[C@@]35OO4)cc1 (stereo partly drawn) | -0.07
C[C@@H]1CC[C@H]2[C@@H](CCCc3ccccc3)C(=O)O[C@@H]3O[C@@]4(C)CC[C@@H]1[C@]32OO4 | 0.78
C[C@@H]1CC[C@H]2[C@@H](C)C(=O)N(Cc3ccccn3)[C@@H]3O[C@@]4(C)CC[C@@H]1[C@@]23O4 | -4
CCCCCC[C@H]1C(=O)O[C@@H]2O[C@@]3(C)CC[C@H]4[C@H](C)CC[C@@H]1[C@@]24O3 | -4
C=CCOCC[C@@H]1CCC[C@@H]2CC[C@@]3(C)OO[C@]21[C@@H](OC)O3 | 0.4
C[C@@H]1CC[C@H]2[C@@H](C)C(OCC3C4CC5CC(C4)CC3C5)O[C@@H]3O[C@@]4(C)CC[C@@H]1[C@]32OO4 (stereo partly drawn) | 0.28
COC(=O)C[C@@H](C)OC1O[C@@H]2O[C@@]3(C)CC[C@H]4[C@H](C)CC[C@@H]([C@H]1C)[C@@]24OO3 (stereo partly drawn) | 1.7
C[C@@]12C[C@H]3CCC[C@H]4CC(=O)O[C@H](O1)[C@@]34OO2 | -1.79
CCO[C@H]1O[C@@H]2O[C@@]3(C)CC(O)[C@H]4C(C)CC[C@@H]([C@H]1C)[C@@]24OO3 (stereo partly drawn) | -1.08
CCCN1C(=O)C[C@@H]2CC[C@@H](C)[C@@H]3CC[C@@]4(C)OO[C@@]23[C@H]1O4 | 0.05
C[C@H]1[C@@H](O[C@H](C)c2ccc(C(=O)O)cc2)O[C@@H]2O[C@@]3(C)CC[C@H]4[C@H](C)CC[C@@H]1[C@@]24OO3 | 0.12
C[C@H]1[C@@H](O[C@@H](C)c2ccc(C(=O)O)cc2)O[C@@H]2O[C@@]3(C)CC[C@H]4[C@H](C)CC[C@@H]1[C@@]24OO3 | 0.21
CC(=O)Oc1ccc([C@@H](C)O[C@H]2O[C@@H]3O[C@@]4(C)CC[C@H]5[C@H](C)CC[C@@H]([C@H]2C)[C@@]35OO4)cc1 | 0.68
COC1O[C@@H]2O[C@@]3(C)CC[C@H]4[C@H](C)CC[C@@H]([C@H]1C)[C@@]24OO3 (stereo partly drawn) | 0.28
C[C@@H]1CC[C@H]2CC(=O)N(Cc3ccccc3)[C@@H]3O[C@@]4(C)CC[C@@H]1[C@@]23OO4 | 0.34
C[C@@H]1CC[C@@H]2[C@]34OO[C@](C)(CC[C@@H]13)O[C@H]4OC(=O)[C@]21CO1 | -4
C[C@@H]1CC[C@H]2CC(=O)O[C@@H]3O[C@@]4(CCCc5ccc(Cl)cc5)CC[C@@H]1[C@@]23OO4 | 0.1
